Reference: patent US7285556B2, “Thienopyrimidine-based inhibitors of the src family” (Board of Regents, The University of Texas Systems, priority 2000, dated 2007)
Where two headings read alike, the source gives them in different places.

Tests used:
[1] = biological target: T1, Recombinant human Src (Homo sapiens, UniProt P12931); test: Src tyrosine kinase activity, poly E4Y and 32P-ATP; assay type: biochemical
T1 construct: made in house; host or cells: baculovirus-insect cell system
Method in brief: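 Recombinant GST-Csk (E. coli) or baculovirus-expressed human Src assayed on poly E4Y in 0.15 M EPPS-NaOH pH 8.0, 6 mM MgCl2, 0.2 mM γ32P-ATP, 10% glycerol, 0.1% Triton X-100. Read-out is 32P incorporation into poly E4Y; for ATP variation (0–250 μM), poly E4Y held at 150 μg/ml.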

[2] = biological target: T2, N12 neuronal Src variant (Homo sapiens, UniProt P12931); test: Testing against neuronal Src variant N12; assay type: biochemical; conditions: Table 5
T2 construct: made in house
Experimental: (§1) The tyrosine kinase activity of Src, Csk and FGFr was determined using poly E4Y and ^32P-ATP. Briefly, enzymes were assayed in a reaction mixture consisting of 0.15 M EPPS-NaOH (pH 8.0) with 6 mM MgCl2, 0.2 mM γ^32P-ATP (0.2-0.4 mCi/μmol), 10% glycerol, 0.1% Triton X-100, and poly E4Y. Poly E4Y is a synthetic peptide whose phosphorylation is measured in this assay by the addition of the radioactively labeled phosphate from the ATP (Budde et al., 1995). […] When ATP was varied (0, 50, 100 and 250 μM), poly E4Y was kept constant at 150 μg/ml.
(§2) Thienopyrimidine-based compounds were also tested against neuronal Src variants (Table 5).

[3] = biological target: T3, N23 neuronal Src variant (Homo sapiens, UniProt P12931); test: Testing against neuronal Src variant N23; assay type: biochemical; conditions: Table 5
T3 construct: made in house
Experimental: as §1, §2

[4] = tested on: colon adenocarcinoma cell line, HT29; test: MTT reduction assay, in vitro drug cytotoxicity; assay type: cell-based; conditions: Homo sapiens, HT-29, 72 hours incubation, read-out: IC50, HT-29 cells
Experimental: Compounds synthesized using the methods described above were tested using a standard MTT assay (Green et al., 1984) against a colon adenocarcinoma cell line, HT29. A human ovarian cancer cell line, SKOv-3 may also be used. The use of an MTT assay using these cells is recognized as an accepted assay for anti-tumor activity by those in the field. The in vitro activity of Src inhibitors of the present invention against diseases other than cancer may be assayed by methods known to those of skill in the art.
In vitro drug cytotoxicities against a colon adenocarcinoma cell line, HT29 was assessed by using the MTT reduction assay, as previously reported (Green et al., 1984). A human ovarian cancer cell line, SKOv-3 may also be used. The MTT dye was obtained from Sigma Chemical Co. (St. Louis, Mo.). The drugs were dissolved in DMSO:PEG 300 (1:1). Neither DMSO or PEG 300 are toxic to cells at a concentration of 31.6 μg/ml. […] The optical density of each well was then measured with a microplate spectrophotometer at a wavelength of 570 nm with a reference cell at 650 nm. The percent cell viability was calculated by the following equation: % cell viability=(OD treated wells/OD control wells)×100
where OD is the mean optical density from four determinations. The percent cell viability values were plotted against the drug concentrations used, and the IC50 was calculated from the curve.

T1 sequence (P12931 whole entry): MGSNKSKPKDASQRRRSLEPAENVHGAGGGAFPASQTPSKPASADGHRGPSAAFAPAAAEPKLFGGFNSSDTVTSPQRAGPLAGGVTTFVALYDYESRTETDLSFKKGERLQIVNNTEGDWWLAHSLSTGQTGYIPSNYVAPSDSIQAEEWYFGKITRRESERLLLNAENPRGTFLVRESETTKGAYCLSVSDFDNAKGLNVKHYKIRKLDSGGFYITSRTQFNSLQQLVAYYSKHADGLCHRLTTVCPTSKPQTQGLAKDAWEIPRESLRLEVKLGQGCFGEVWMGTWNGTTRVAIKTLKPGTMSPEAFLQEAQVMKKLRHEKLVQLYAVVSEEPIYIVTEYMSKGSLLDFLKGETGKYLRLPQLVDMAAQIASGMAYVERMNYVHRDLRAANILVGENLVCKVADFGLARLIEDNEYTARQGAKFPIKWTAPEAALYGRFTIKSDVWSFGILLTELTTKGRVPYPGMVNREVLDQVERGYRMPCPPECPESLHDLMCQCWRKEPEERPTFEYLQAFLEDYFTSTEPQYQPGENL
T3 sequence (P12931 1-553 isoform P12931-3): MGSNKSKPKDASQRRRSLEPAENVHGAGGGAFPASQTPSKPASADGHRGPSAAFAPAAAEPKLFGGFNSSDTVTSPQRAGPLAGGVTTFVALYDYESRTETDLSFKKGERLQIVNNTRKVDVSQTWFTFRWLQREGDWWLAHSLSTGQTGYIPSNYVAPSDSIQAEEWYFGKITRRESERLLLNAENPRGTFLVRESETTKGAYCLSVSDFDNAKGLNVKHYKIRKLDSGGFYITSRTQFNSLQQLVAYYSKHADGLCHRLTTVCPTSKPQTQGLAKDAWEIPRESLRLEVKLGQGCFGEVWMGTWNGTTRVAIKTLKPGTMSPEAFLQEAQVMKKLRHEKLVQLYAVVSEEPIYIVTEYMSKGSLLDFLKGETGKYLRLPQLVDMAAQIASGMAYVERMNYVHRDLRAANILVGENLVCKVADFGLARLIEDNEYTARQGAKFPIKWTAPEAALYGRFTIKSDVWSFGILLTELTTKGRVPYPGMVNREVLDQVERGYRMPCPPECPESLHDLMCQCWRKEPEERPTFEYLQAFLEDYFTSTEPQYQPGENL
T2 sequence (P12931 1-542 isoform P12931-2): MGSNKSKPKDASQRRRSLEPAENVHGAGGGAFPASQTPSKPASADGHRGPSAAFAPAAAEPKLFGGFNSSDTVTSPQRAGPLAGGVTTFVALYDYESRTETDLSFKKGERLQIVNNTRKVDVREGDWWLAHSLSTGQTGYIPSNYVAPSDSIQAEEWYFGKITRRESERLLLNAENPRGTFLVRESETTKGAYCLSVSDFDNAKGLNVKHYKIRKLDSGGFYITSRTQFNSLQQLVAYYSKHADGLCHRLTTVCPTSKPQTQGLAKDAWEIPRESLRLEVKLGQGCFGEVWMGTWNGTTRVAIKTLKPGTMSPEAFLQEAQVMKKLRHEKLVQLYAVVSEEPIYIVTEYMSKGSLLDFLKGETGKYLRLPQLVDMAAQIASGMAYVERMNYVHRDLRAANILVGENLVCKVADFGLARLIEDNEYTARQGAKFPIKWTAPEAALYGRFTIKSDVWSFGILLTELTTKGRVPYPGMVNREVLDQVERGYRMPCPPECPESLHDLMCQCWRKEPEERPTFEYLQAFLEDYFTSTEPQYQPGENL

**Q.** What does the source list for `Cc1csc2c(NN=Cc3cccnc3)ncnc12` [Compound 27, 3-Pyridinecarboxaldehyde(7-methylthieno[3,2-d]pyrimidin-4-yl)hydrazone]?
**A.** IC50 ([1]; Table 2, read-out: Src IC50 (especially good inhibitors of Src)): ≤ 2000 nM; IC50 ([1]; Table 5, N6 = Src, read-out: N6(Src) IC50): 370 nM; IC50 ([1]; read-out: IC50 (preferred compounds for treatment of Src family-related disease)): < 2000 nM; IC50 [2]: 590 nM; IC50 [3]: 280 nM; IC50 [4]: 13000 nM
